According to ChEMBL document CHEMBL1201862, “PubChem BioAssay data set” (2004):
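Test compounds were applied to cells in 96-well plates for 48 hours at 5 doses. At the GI50, growth is halved.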 Calls of active or inactive are those of the source. Rule as the data show it: active = GI50 up to about 1.1 µM and inactive = higher.

Tests used:
Experiment in all cases: DTP human tumour cell line panel, 48 h
NCI-H23 = tested on: NCI-H23
IGROV-1 = tested on: IGROV-1
U-251 = tested on: U-251
ACHN = tested on: ACHN
Malme-3M = tested on: Malme-3M
TK-10 = tested on: TK-10
HT-29 = tested on: HT-29
UACC-62 = tested on: UACC-62
CCRF-CEM = tested on: CCRF-CEM
SF-268 = tested on: SF-268
OVCAR-3 = tested on: OVCAR-3
NCI/ADR-RES = tested on: NCI/ADR-RES
SK-MEL-5 = tested on: SK-MEL-5
SK-MEL-28 = tested on: SK-MEL-28
LOX IMVI = tested on: LOX IMVI
HOP-92 = tested on: HOP-92
SNB-75 = tested on: SNB-75
DU-145 = tested on: DU-145
HCT-116 = tested on: HCT-116
SF-539 = tested on: SF-539
MCF7 = tested on: MCF7
SK-OV-3 = tested on: SK-OV-3
MDA-N = tested on: MDA-N
NCI-H226 = tested on: NCI-H226
NCI-H460 = tested on: NCI-H460
UO-31 = tested on: UO-31
A549 = tested on: A549
OVCAR-4 = tested on: OVCAR-4
A498 = tested on: A498
MDA-MB-435 = tested on: MDA-MB-435
M14 = tested on: M14
SW-620 = tested on: SW-620
K562 = tested on: K562
SR = tested on: SR
786-0 = tested on: 786-0
RXF 393 = tested on: RXF 393
OVCAR-5 = tested on: OVCAR-5
UACC-257 = tested on: UACC-257
SNB-19 = tested on: SNB-19
COLO 205 = tested on: COLO 205
T47D = tested on: T47D
KM12 = tested on: KM12
MDA-MB-231 = tested on: MDA-MB-231
SK-MEL-2 = tested on: SK-MEL-2
PC-3 = tested on: PC-3
HOP-62 = tested on: HOP-62
HL-60 = tested on: HL-60
BT-549 = tested on: BT-549
SN12C = tested on: SN12C
RPMI-8226 = tested on: RPMI-8226
HCT-15 = tested on: HCT-15
Hs-578T = tested on: Hs-578T
HCC 2998 = tested on: HCC 2998
EKVX = tested on: EKVX
OVCAR-8 = tested on: OVCAR-8
SF-295 = tested on: SF-295
CAKI-1 = tested on: CAKI-1
MOLT-4 = tested on: MOLT-4
NCI-H522 = tested on: NCI-H522

O=C(Cn1c(C(=O)/C=C/c2ccco2)nc2ccccc21)c1ccc(Cl)cc1
GI50 (NCI-H23): 11.9 µM (inactive) | GI50 (IGROV-1): 15.1 µM (inactive) | GI50 (U-251): 23.8 µM (inactive) | GI50 (ACHN): 26.2 µM (inactive) | GI50 (Malme-3M): 3.06 µM (inactive) | GI50 (TK-10): 25.1 µM (inactive) | GI50 (HT-29): 26.1 µM (inactive) | GI50 (UACC-62): 22.8 µM (inactive) | GI50 (CCRF-CEM): 3.58 µM (inactive) | GI50 (SF-268): 9.71 µM (inactive) | GI50 (OVCAR-3): 31.5 µM (inactive) | GI50 (NCI/ADR-RES): 11.8 µM (inactive) | GI50 (SK-MEL-5): 19.9 µM (inactive) | GI50 (SK-MEL-28): 26.6 µM (inactive) | GI50 (LOX IMVI): 13.8 µM (inactive) | GI50 (HOP-92): 26.4 µM (inactive) | GI50 (SNB-75): 29 µM (inactive) | GI50 (DU-145): 36.1 µM (inactive) | GI50 (HCT-116): 16.3 µM (inactive) | GI50 (SF-539): 44.9 µM (inactive) | GI50 (MCF7): 19.9 µM (inactive) | GI50 (SK-OV-3): 44.4 µM (inactive) | GI50 (MDA-N): 17.1 µM (inactive) | GI50 (NCI-H226): 52.7 µM (inactive) | GI50 (NCI-H460): 12.3 µM (inactive) | GI50 (UO-31): 23.2 µM (inactive) | GI50 (A549): 26.5 µM (inactive) | GI50 (OVCAR-4): 14.4 µM (inactive) | GI50 (A498): 17.2 µM (inactive) | GI50 (MDA-MB-435): 12.1 µM (inactive) | GI50 (M14): 19.9 µM (inactive) | GI50 (SW-620): 25.4 µM (inactive) | GI50 (K562): 11.7 µM (inactive) | GI50 (SR): 3.03 µM (inactive) | GI50 (786-0): 14.3 µM (inactive) | GI50 (RXF 393): 30.4 µM (inactive) | GI50 (OVCAR-5): > 100 µM (inactive) | GI50 (UACC-257): 14.5 µM (inactive) | GI50 (SNB-19): 27.5 µM (inactive) | GI50 (COLO 205): 19.4 µM (inactive) | GI50 (T47D): 31.6 µM (inactive) | GI50 (KM12): 14.9 µM (inactive) | GI50 (MDA-MB-231): 20.2 µM (inactive) | GI50 (SK-MEL-2): 12.3 µM (inactive) | GI50 (PC-3): 15.8 µM (inactive) | GI50 (HOP-62): 46.8 µM (inactive) | GI50 (HL-60): 15.5 µM (inactive) | GI50 (BT-549): 14.9 µM (inactive) | GI50 (SN12C): 15.2 µM (inactive) | GI50 (RPMI-8226): 10.1 µM (inactive) | GI50 (HCT-15): 20.6 µM | GI50 (Hs-578T): 1.29 µM (inactive) | GI50 (HCC 2998): 17.1 µM (inactive)

O=c1n(-c2ccccc2)c(=O)n2n1C1Cc3ccccc3C12 (configuration not stated)
GI50 (NCI-H23): > 100 µM (inactive) | GI50 (IGROV-1): > 100 µM (inactive) | GI50 (U-251): > 100 µM (inactive) | GI50 (ACHN): > 100 µM (inactive) | GI50 (TK-10): > 100 µM (inactive) | GI50 (HT-29): > 100 µM (inactive) | GI50 (UACC-62): > 100 µM (inactive) | GI50 (EKVX): > 100 µM (inactive) | GI50 (CCRF-CEM): > 100 µM (inactive) | GI50 (SF-268): > 100 µM (inactive) | GI50 (OVCAR-3): > 100 µM (inactive) | GI50 (NCI/ADR-RES): > 100 µM (inactive) | GI50 (SK-MEL-5): > 100 µM (inactive) | GI50 (SK-MEL-28): > 100 µM (inactive) | GI50 (LOX IMVI): > 100 µM (inactive) | GI50 (HOP-92): > 100 µM (inactive) | GI50 (OVCAR-8): > 100 µM (inactive) | GI50 (SNB-75): 69.5 µM (inactive) | GI50 (DU-145): > 100 µM (inactive) | GI50 (SF-295): > 100 µM (inactive) | GI50 (HCT-116): > 100 µM (inactive) | GI50 (SF-539): > 100 µM (inactive) | GI50 (MCF7): > 100 µM (inactive) | GI50 (SK-OV-3): > 100 µM (inactive) | GI50 (MDA-N): > 100 µM (inactive) | GI50 (NCI-H226): > 100 µM (inactive) | GI50 (NCI-H460): > 100 µM (inactive) | GI50 (UO-31): > 100 µM (inactive) | GI50 (A549): > 100 µM (inactive) | GI50 (A498): > 100 µM (inactive) | GI50 (MDA-MB-435): > 100 µM (inactive) | GI50 (M14): > 100 µM (inactive) | GI50 (CAKI-1): > 100 µM (inactive) | GI50 (SW-620): > 100 µM (inactive) | GI50 (K562): > 100 µM (inactive) | GI50 (SR): > 100 µM (inactive) | GI50 (786-0): > 100 µM (inactive) | GI50 (MOLT-4): > 100 µM (inactive) | GI50 (OVCAR-5): > 100 µM (inactive) | GI50 (UACC-257): > 100 µM (inactive) | GI50 (SNB-19): > 100 µM (inactive) | GI50 (COLO 205): > 100 µM (inactive) | GI50 (T47D): > 100 µM (inactive) | GI50 (KM12): > 100 µM (inactive) | GI50 (MDA-MB-231): > 100 µM (inactive) | GI50 (SK-MEL-2): > 100 µM (inactive) | GI50 (PC-3): > 100 µM (inactive) | GI50 (HOP-62): > 100 µM (inactive) | GI50 (HL-60): > 100 µM (inactive) | GI50 (BT-549): > 100 µM (inactive) | GI50 (SN12C): > 100 µM (inactive) | GI50 (RPMI-8226): > 100 µM (inactive) | GI50 (HCT-15): > 100 µM | GI50 (Hs-578T): 15 µM (inactive)

COc1cc([C@@H]2c3cc4c(cc3[C@@H](Nc3ccc(Cl)cc3C(=O)c3ccccc3)[C@H]3COC(=O)[C@H]23)OCO4)cc(OC)c1OC
GI50 (NCI-H23): 0.43 µM (active) | GI50 (IGROV-1): 0.417 µM (active) | GI50 (U-251): 0.241 µM (active) | GI50 (ACHN): 0.592 µM (active) | GI50 (Malme-3M): 0.396 µM (active) | GI50 (TK-10): > 100 µM (inactive) | GI50 (HT-29): 0.307 µM (active) | GI50 (UACC-62): 0.401 µM (active) | GI50 (EKVX): > 100 µM (inactive) | GI50 (CCRF-CEM): 0.37 µM (active) | GI50 (SF-268): 0.558 µM (active) | GI50 (OVCAR-3): 0.324 µM (active) | GI50 (NCI/ADR-RES): 0.425 µM (active) | GI50 (SK-MEL-5): 0.298 µM (active) | GI50 (SK-MEL-28): 0.372 µM (active) | GI50 (LOX IMVI): 0.303 µM (active) | GI50 (OVCAR-8): 0.359 µM (active) | GI50 (DU-145): 0.428 µM (active) | GI50 (SF-295): 0.299 µM (active) | GI50 (HCT-116): 0.291 µM (active) | GI50 (SF-539): 0.274 µM (active) | GI50 (MCF7): 0.395 µM (active) | GI50 (SK-OV-3): 0.641 µM (active) | GI50 (MDA-N): 0.307 µM (active) | GI50 (NCI-H460): 0.277 µM (active) | GI50 (UO-31): 1.19 µM (inactive) | GI50 (A549): 0.501 µM (active) | GI50 (OVCAR-4): > 100 µM (inactive) | GI50 (A498): 0.195 µM (active) | GI50 (MDA-MB-435): 0.242 µM (active) | GI50 (M14): 0.414 µM (active) | GI50 (CAKI-1): 0.601 µM (active) | GI50 (SW-620): 0.369 µM (active) | GI50 (K562): 0.358 µM (active) | GI50 (SR): 0.295 µM (active) | GI50 (786-0): 0.394 µM (active) | GI50 (MOLT-4): 0.384 µM (active) | GI50 (OVCAR-5): 0.598 µM (active) | GI50 (UACC-257): 0.998 µM (active) | GI50 (SNB-19): 0.408 µM (active) | GI50 (COLO 205): 0.416 µM (active) | GI50 (T47D): > 100 µM (inactive) | GI50 (KM12): 0.258 µM (active) | GI50 (MDA-MB-231): 0.586 µM (active) | GI50 (SK-MEL-2): 2.34 µM (inactive) | GI50 (PC-3): 0.342 µM (active) | GI50 (HOP-62): 0.64 µM (active) | GI50 (HL-60): 0.297 µM (active) | GI50 (BT-549): 0.457 µM (active) | GI50 (SN12C): 0.518 µM (active) | GI50 (RPMI-8226): 0.467 µM (active) | GI50 (NCI-H522): 0.211 µM (active) | GI50 (HCT-15): 0.308 µM | GI50 (Hs-578T): 0.287 µM (active) | GI50 (HCC 2998): 0.205 µM (active)
